In US9926301B2, “Bipyrazole derivatives as JAK inhibitors” (Incyte Corporation, priority 2013, dated 2018) one finds IC50 and JAK2/JAK1 data, which are given here for twelve compounds.

pIC50: −log10 of the molar value. Counter-ions that a name gives are not always drawn.

Holding throughout (format): biochemical
For test [1], the target named is human JAK1 (a.a. 837-1142) catalytic domain (Homo sapiens, UniProt P23458). Briefly: In vitro JAK kinase assay (HTRF), JAK1. Conditions: JAK enzyme assay at 1 mM ATP. How it is done:
(§1) The catalytic activity of JAK1, JAK2 or JAK3 was assayed by measuring the phosphorylation of a biotinylated peptide. The phosphorylated peptide was detected by homogenous time resolved fluorescence (HTRF). […] Reactions were carried out at room temperature for 1 hour and then stopped with 20 μL 45 mM EDTA, 300 nM SA-APC, 6 nM Eu-Py20 in assay buffer (Perkin Elmer, Boston, Mass.). Binding to the Europium labeled antibody took place for 40 minutes and HTRF signal was measured on a Fusion plate reader (Perkin Elmer, Boston, Mass.).
On the technique in general: In TR-FRET formats the signal depends on donor and acceptor labels being close together.

In test [2] the test system is human JAK1 (a.a. 837-1142) catalytic domain. Briefly: In vitro JAK kinase assay (HTRF), JAK1. Conditions: ratio of IC50 values at 1 mM ATP. The method, then: as §1
Test [3] concerns the target human JAK2 (a.a. 828-1132) catalytic domain (Homo sapiens (Human), UniProt O60674). Briefly: In vitro JAK kinase assay (HTRF), JAK2. Conditions: JAK enzyme assay at 1 mM ATP. The method, then:
as §1

Sequence of human JAK2 (a.a. 828-1132) catalytic domain (O60674 828-1132): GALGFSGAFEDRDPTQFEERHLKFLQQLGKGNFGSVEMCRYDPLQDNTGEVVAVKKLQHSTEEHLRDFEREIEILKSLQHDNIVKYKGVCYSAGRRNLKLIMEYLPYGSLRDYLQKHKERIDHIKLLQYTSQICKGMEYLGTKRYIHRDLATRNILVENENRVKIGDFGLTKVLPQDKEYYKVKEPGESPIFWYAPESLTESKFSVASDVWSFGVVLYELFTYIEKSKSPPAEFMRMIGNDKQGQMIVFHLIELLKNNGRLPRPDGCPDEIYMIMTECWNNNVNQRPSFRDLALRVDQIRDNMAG

Broadly, the pIC50 is the negative decadic logarithm of the IC50, by convention in mol/L. Low readings indicate a high IC50, high ones a low IC50. Regarding `Cc1n[nH]cc1-c1cn(C2(CC#N)CN(c3cc(F)c(C(=O)N[C@@H](C)C(F)(F)F)cc3F)C2)nc1CO` [Example 13, 4-{3-(Cyanomethyl)-3-[3-(hydroxymethyl)-3′-methyl-1H,1′H-4,4′-bipyrazol-1-yl]azetidin-1-yl}-2,5-difluoro-N-[(1S)-2,2,2-trifluoro-1-methylethyl]benzamide], the results for the pIC50 in test [1] and in test [3] were over 6.52 and under 6.00, respectively. In test [2], the JAK2/JAK1 is given as over 10.
The like results for `Cc1n[nH]cc1-c1cnn(C2(CC#N)CN(c3ccc(C(=O)NC(C)C)cc3)C2)c1` [Example 3, 4-[3-(Cyanomethyl)-3-(3′-methyl-1H,1′H-4,4′-bipyrazol-1-yl)azetidin-1-yl]-N-isopropylbenzamide trifluoroacetate] were, in that order, over 6.52, under 6.00 and over 10.
In test [1], `Cc1n[nH]c(C)c1-c1cnn(C2(CC#N)CN(c3cnc(C(=O)NC(C)C)cn3)C2)c1` [Example 8, 5-[3-(Cyanomethyl)-3-(3′,5′-dimethyl-1H,1′H-4,4′-bipyrazol-1-yl)azetidin-1-yl]-N-isopropylpyrazine-2-carboxamide] showed a pIC50 of over 6.52.
With `Cc1[nH]ncc1-c1cnn(C2(CC#N)CN(c3cnc(C(=O)N[C@@H](C)C(F)(F)F)cn3)C2)c1` [Example 1, 5-[3-(Cyanomethyl)-3-(3′-methyl-1H,1′H-4,4′-bipyrazol-1-yl)azetidin-1-yl]-N-[(1S)-2,2,2-trifluoro-1-methylethyl]pyrazine-2-carboxamide trifluoroacetate], the pIC50 in test [1] was over 6.52; in test [3], under 6.15. Moreover, the JAK2/JAK1 in test [2] is given as over 10.
Taken in the same sequence, the figures for `Cc1n[nH]cc1-c1cn(C2(CC#N)CN(c3cnc(C(=O)NC(C)C)cn3)C2)nc1C` [Example 6, 5-[3-(Cyanomethyl)-3-(3,3′-dimethyl-1H,1′H-4,4′-bipyrazol-1-yl)azetidin-1-yl]-N-isopropylpyrazine-2-carboxamide trifluoroacetate] were over 6.52, under 6.00 and over 10.
Regarding `Cc1n[nH]cc1-c1cnn(C2(CC#N)CN(c3cc(F)c(C(=O)N[C@@H](C)C(F)(F)F)cc3F)C2)c1` [Example 4, 4-[3-(Cyanomethyl)-3-(3′-methyl-1H,1′H-4,4′-bipyrazol-1-yl)azetidin-1-yl]-2,5-difluoro-N-[(1S)-2,2,2-trifluoro-1-methylethyl]benzamide trifluoroacetate], the pIC50 in test [1] is over 6.52.
`C[C@H](NC(=O)c1cc(F)c(N2CC(CC#N)(n3cc(-c4cn[nH]c4)cn3)C2)cc1F)C(F)(F)F` [Example 5, 4-[3-(1H,1′H-4,4′-Bipyrazol-1-yl)-3-(cyanomethyl)azetidin-1-yl]-2,5-difluoro-N-[(1S)-2,2,2-trifluoro-1-methylethyl]benzamide trifluoroacetate]: the pIC50 in test [1] was 6.00 to 6.52; in test [3], under 6.00. Besides, the JAK2/JAK1 in test [2] was over 10.
As to `C[C@H](NC(=O)c1cc(F)c(N2CC(CC#N)(n3cc(-c4c[nH]nc4CO)cn3)C2)cc1F)C(F)(F)F` [Example 12, 4-{3-(Cyanomethyl)-3-[3′-(hydroxymethyl)-1H,1′H-4,4′-bipyrazol-1-yl]azetidin-1-yl}-2,5-difluoro-N-[(1S)-2,2,2-trifluoro-1-methylethyl]benzamide trifluoroacetate], the negative-log IC50 (pIC50) in test [1] is 6.00 to 6.52; in test [3], under 6.00.
As for `CCc1n[nH]cc1-c1cnn(C2(CC#N)CN(c3cnc(C(=O)N[C@@H](C)C(F)(F)F)cn3)C2)c1` [Example 11, 5-[3-(Cyanomethyl)-3-(3′-ethyl-1H,1′H-4,4′-bipyrazol-1-yl)azetidin-1-yl]-N-[(1S)-2,2,2-trifluoro-1-methylethyl]pyrazine-2-carboxamide trifluoroacetate], the pIC50 is 6.00 to 6.52 in test [1] and under 6.00 in test [3].
With `Cc1n[nH]cc1-c1cnn(C2(CC#N)CN(c3cnc(C(=O)NC(C)C)cn3)C2)c1` [Example 2, 5-[3-(Cyanomethyl)-3-(3′-methyl-1H,1′H-4,4′-bipyrazol-1-yl)azetidin-1-yl]-N-isopropylpyrazine-2-carboxamide trifluoroacetate], the pIC50 was over 6.52 in test [1] and 6.00 to 6.52 in test [3]. Besides, the JAK2/JAK1 in test [2] is given as over 10.
Turning to `Cc1nn(C2(CC#N)CN(c3cnc(C(=O)NC(C)C)cn3)C2)cc1-c1cn[nH]c1` [Example 10, 5-[3-(Cyanomethyl)-3-(3-methyl-1H,1′H-4,4′-bipyrazol-1-yl)azetidin-1-yl]-N-isopropylpyrazine-2-carboxamide trifluoroacetate], the pIC50 was 6.00 to 6.52 in test [1] and under 6.00 in test [3].
Take `Cc1n[nH]c(C)c1-c1cnn(C2(CC#N)CN(c3cnc(C(=O)N[C@@H](C)C(F)(F)F)cn3)C2)c1` [Example 9, 5-[3-(Cyanomethyl)-3-(3′,5′-dimethyl-1H,1′H-4,4′-bipyrazol-1-yl)azetidin-1-yl]-N-[(1S)-2,2,2-trifluoro-1-methylethyl]pyrazine-2-carboxamide trifluoroacetate]: the negative logarithm of the IC50 (pIC50) in test [1] was over 6.52; in test [3] it was 6.00 to 6.52. The JAK2/JAK1 in test [2] is on record as over 10.
